Measurements taken from patent US11834435B2, “SSTR4 agonist salts” (Eli Lilly and Company, priority 2021, dated 2023).

What was measured:
hSSTR4 [1] = biological target: T1, hSSTR4 (Homo sapiens (Human), UniProt P31391); test: cAMP assay (inhibition of forskolin-stimulated cAMP) in hSSTR4 expressing H4 cells; assay type: cell-based; conditions: after being dissolved to free base forms
Description: The activation of the SSTR4 receptor (G coupled) causes an inhibition of intracellular cAMP after stimulation with Forskolin, which can be quantifiable by use of a suitable assay Kit and an adequate plate reader. This technique is used to characterize pharmacological effects of the SSTR4 receptor agonists by use of hSSTR4 expressing H4 cells. The compound is dissolved and diluted in DMSO. The final test solution contains 1% DMSO. The cAMP standard (Lance™ cAMP 384 Kit; PerkinElmer, Cat #AD0264) is prepared in assay buffer (HBSS with 0.1% BSA, 5 mM HEPES, […], pH 7.4) containing 1% DMSO and the cAMP standard curve is included at least on one plate. Cells are centrifuged and suspended in assay buffer (incl. 1:100 diluted Alexa Fluor® antibody). For the assay 5 μL of a cell suspension (approximately 5000 cells/well)-incl. Alexa Fluor® antibody (diluted 1:100) are added into a 384 well MTP microtiter plate excepting one row or column (depending on the plate layout), which is reserved for the standard curve. Then 2 μL of compound sample is added as concentration response curve (e.g., le-5 M to 6e-10 M), usually in triplicates. Each assay contains incubations with vehicle controls instead of compound as controls for non-inhibited cAMP generation (100% CTL; ‘high values’) and incubations with 1 μM Somatostatin as controls for full inhibition and background (0% CTL; ‘low values’). After approximately 10-15 min incubation time 3 μL Forskolin (dissolved in DMSO, final conc. 15 μM) is added. Then the plates are shaken briefly and incubated for 60 min at RT. After 60 min 10 μL of the detection mix is added into all wells followed by an additional incubation period of 1 h. The plates are read in a suitable plate reader. The analysis of the data is based on the “ratio” of the time-resolved fluorescence measurements of donor and acceptor fluorophore (Ex: 320 nm; Em1: 665 nm; Em2: 615 nm; ratio 665/615). From this ratio, cAMP concentrations are calculated from standard curve and the EC50 is estimated by least square curve fit program. […]

hSSTR4 [2] = biological target: T1, hSSTR4; test: Radioligand competition binding, membrane homogenate; conditions: after being dissolved to free base forms
Description: In competition experiments, the test compound, which is not labeled, competes with the binding site of a labeled ligand. The displacement of the labeled ligand by the test compound leads to a decreased signal. For the binding experiments 200 μL of membrane homogenate from one of the following protein amounts is used: hSSTR1 (40 μg/well); hSSTR2 (25 μg/well); hSSTR3 (1.5 μg/well); hSSTR4 (0.5 μg/well); hSSTR5 (25 μg/well). The homogenate is incubated with 0.05 nM of radioligand ([3-125I-Tyr]-Somatostatin-(1-14)) in addition to increasing concentrations of a test compound or vehicle (100% binding) in a total volume of 250 μL using a Hepes buffer (10 mM, EDTA 1 mM, MgCl2 5 mM, pH 7.6, BSA 0.5%, Bacitracin 0.003%, DMSO 1%) for 180 min at RT. The incubation is terminated by filtration with ice cold NaCl 0.9% through polyethyleneimine treated (0.3%) grade GF/B glass fiber filters using a cell harvester. The protein-bound radioactivity is measured in a suitable reader. The non-specific binding is defined as radioactivity bound in the presence of 1 μM Somatostatin-14 during the incubation period. The analysis of the concentration-binding curves is performed by computer-assisted nonlinear least square curve fitting method using the model of one receptor binding site.

T1 sequence (P31391 whole entry): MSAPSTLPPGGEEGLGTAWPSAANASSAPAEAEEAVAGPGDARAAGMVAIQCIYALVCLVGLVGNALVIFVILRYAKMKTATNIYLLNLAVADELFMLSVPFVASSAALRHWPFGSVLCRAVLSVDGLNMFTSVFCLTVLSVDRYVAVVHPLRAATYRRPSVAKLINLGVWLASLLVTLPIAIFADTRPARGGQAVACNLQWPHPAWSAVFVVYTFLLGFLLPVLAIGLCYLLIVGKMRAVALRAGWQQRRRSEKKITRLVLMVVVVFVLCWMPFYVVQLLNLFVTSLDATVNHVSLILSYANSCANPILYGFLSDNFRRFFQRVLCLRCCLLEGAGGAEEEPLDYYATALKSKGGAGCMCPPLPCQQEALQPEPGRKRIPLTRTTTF

SMILES | SSTR4 agonism (in words) (hSSTR4 [1]) | Selectivity of binding to SSTR4 over SSTR1, SSTR2, SSTR3 and SSTR5 (in words) (hSSTR4 [2])
Cc1cccnc1OCC(C)(C)NC(=O)[C@H]1[C@@H]2CNC[C@@H]21.O=C(O)C[C@H](O)C(=O)O [Example 3, (1S,5R)-(1α,5α,6α)-N-[1,1-dimethyl-2-[(3-methyl-2-pyridyl)oxy]ethyl]-3-azabicyclo[3.1.0]hexane-6-carboxamide L-malate] | agonists of SSTR4 | selectively bind to SSTR4
Cc1cccnc1OCC(C)(C)NC(=O)[C@H]1[C@@H]2CNC[C@@H]21.O=C(O)CC(O)(CC(=O)O)C(=O)O [Example 2, (1S,5R)-(1α,5α,6α)-N-[1,1-dimethyl-2-[(3-methyl-2-pyridyl)oxy]ethyl]-3-azabicyclo[3.1.0]hexane-6-carboxamide citrate] | agonists of SSTR4 | selectively bind to SSTR4
Cc1cccnc1OCC(C)(C)NC(=O)[C@H]1[C@@H]2CNC[C@@H]21.O=C(O)C(O)C(O)C(=O)O [Example 1, (1S,5R)-(1α,5α,6α)-N-[1,1-dimethyl-2-[(3-methyl-2-pyridyl)oxy]ethyl]-3-azabicyclo[3.1.0]hexane-6-carboxamide L-tartrate sesquihydrate] | agonists of SSTR4 | selectively bind to SSTR4
